Assay results as given in patent USRE38046E1, “Enhancement of the cellular immune response” (Biomira, Inc., priority 1986, dated 2003).

Assays:
DTH effector cells = assay: Local transfer of DTH: antigen-primed spleen/T cells co-injected with triggering antigen into foot pad, net DTH swelling; format: in vivo, mice
TA3Ha cells = assay: Priming with antigen, challenge 2-3 days later with live TA3Ha cells, survival; format: in vivo, mice
From the text: Groups of five mice at a time were primed with specific doses of T-alpha (TF) (Ta), T-beta (Tb) (asialo-GM1 disaccharide) and Tn S-Tags. After 2-3 days, they were challenged with 3×10^3 live TA3Ha cells.
Groups of five mice were primed with specific doses of epi. After 2-3 days they were challenged with 3′10^3 live TA3Ha cells.

In the case of Epiglycanin, the DTH reaction (DTH effector cells; cells primed with the priming Ag, triggering Ag Fuc) is reported as “not to those carbohydrate determinants which are not represented on epiglycanin”, the DTH reaction (DTH effector cells; cells primed with the priming Ag, triggering Ag Ta, listed as epi) is reported as “reaction was with the T alpha, T beta and Tn determinants” and the DTH reaction (DTH effector cells; cells primed with the priming Ag, triggering Ag Tb, listed as epi) is reported as “reaction was with the T alpha, T beta and Tn determinants”. For the same substance, the DTH reaction (DTH effector cells; cells primed with the priming Ag, triggering Ag Tn, listed as epi) was “reaction was with the T alpha, T beta and Tn determinants”, the DTH reaction (DTH effector cells; triggering antigen Epi-M (epi linked to SEPHAROSE microspheres)) was “induced a specific DTH response” and the DTH reaction (DTH effector cells; triggering antigen irradiated TA3Ha cells) was “induced a specific DTH response”. The “In Vivo Protection: Number of animals alive at 4 weeks” value (“In Vivo Protection: Number” below) (TA3Ha cells; Dose of Ag 0.1 ug) was 1/20, the “In Vivo Protection: Number” value (TA3Ha cells; Dose of Ag 0.5 ug) was 5/20 and the “In Vivo Protection: Number” value (TA3Ha cells; Dose of Ag 1.0 ug) was 8/20. For the same substance, the “In Vivo Protection: Number” value (TA3Ha cells; Dose of Ag 5.0 ug) was 8/15, the “In Vivo Protection: Number” value (TA3Ha cells; Dose of Ag 10.0 ug) was 7/20 and the “No. alive (at d. 9)” value (TA3Ha cells; priming dose 0.2 ug) was 2/5. The Survival ave. (TA3Ha cells; priming dose 0.2 ug) was 33.8 days, the “No. alive (at d. 9)” value (TA3Ha cells; priming dose 1 ug) was 4/5 and the Survival ave. (TA3Ha cells; priming dose 1 ug) was 44.2 days. The “No. alive (at d. 9)” value (TA3Ha cells; priming dose 2 ug) was 4/5, the Survival ave. (TA3Ha cells; priming dose 2 ug) was 25.2 days and the “No. alive (at d. 9)” value (TA3Ha cells; priming dose 10 ug) was 0/4. For the same substance, the Survival ave. (TA3Ha cells; priming dose 10 ug) was 22.3 days, the “No. alive (at d. 9)” value (TA3Ha cells; priming dose 20 ug) was 1/5 and the Survival ave. (TA3Ha cells; priming dose 20 ug) was 29.0 days. The “No. alive (at d. 9)” value (TA3Ha cells; priming dose 100 ug) was 1/5, the Survival ave. (TA3Ha cells; priming dose 100 ug) was 25.5 days and the “protection against TA3Ha tumor cells” value (TA3Ha cells; summary of Table 3) was “did provide protection”.
